Measured values reported in US5891434A, “Monoclonal antibodies to the APO-1 antigen” (Centocor, Inc., priority 1995, dated 1999).

Tests used:
[1] = tested on: membrane blebbing induced by anti-APO-1; assay: kinetics of membrane blebbing induced by anti-APO-1, in the presence of chelators; assay type: cell-based; settings: 10 mM
From the text: The CCRF-CEM.S2 subclone was obtained by cloning cells under limiting dilution conditions from the CCRF-CEM T cell line at one cell per well in 96-well microtiter plates.

[2] = tested on: DNA fragmentation induced by anti-APO-1; assay: endonuclease-mediated DNA fragmentation induced by anti-APO-1, in the presence of Ca2+ channel blockers; assay type: cell-based; settings: Ca2+ channel blocker at 50 μM
Experimental: CCRF-CEM.S2 cells (10^6 per milliliter) were incubated with MAb (1 μg/ml) in culture medium at 37° C. At various times, aliquots of 10^6 cells were removed and DNA was prepared.
SKW6.4 cells were either incubated with the isotype-matched control MAb FII20, FII23 (nonbinding MAb), or anti-APO-1 in microcultures for 24 hours before labeling with [^3 H]-thymidine for a further 4 hours. The data represent the mean of duplicate cultures with a variation of less than 5%. The cells were cultured in RPMI 1640 medium (Gibco, Grand Island, N.Y.), supplemented with 2 mM L-glutamine, streptomycin (100 μg/ml), penicillin (100 U/ml), 20 mM Hepes buffer pH 7.3, and 10% heat-inactivatedfetal bovine serum (Conco Lab-Division, Wiesbaden, FRG). For microcultures 1×10^4 cells per well were cultured in duplicates in flat bottom 96-well microtiter plates (Tecnomara, Fernwald, FRG) (200 μfinal volume per well). After 24 hours, the cells were labeled with 0.5 μCi of [^3 H]-thymidine (Amersham, Braunschweig, FRG)) for 4 hours. Before harvesting, the microcultures were examined by microscopic inspection. For DNA fragmentation 1×10^6 cells were washed with cold phosphate-buffered saline and disrupted with NTE buffer, pH 8 (100 mM NaCl, 10 mM Tris-HCl, 1 mM EDTA) containing 1% SDS and proteinase K (0.2 mg/ml). […]

O=C(O)CN(CCN(CC(=O)O)CC(=O)O)CC(=O)O [EDTA]
influence on kinetics of membrane blebbing induced by anti-APO-1 (within 30 minutes) [1]: not influenced

O=C(O)CN(CCOCCOCCN(CC(=O)O)CC(=O)O)CC(=O)O [EGTA]
influence on kinetics of membrane blebbing induced by anti-APO-1 (within 30 minutes) [1]: not influenced

COC(=O)C1=C(C)NC(C)=C(C(=O)OC)C1c1ccccc1[N+](=O)[O-] [Nifedipin]
inhibition of endonuclease-mediated DNA fragmentation induced by anti-APO-1 [2]: not inhibited

Furamicin
inhibition of endonuclease-mediated DNA fragmentation induced by anti-APO-1 [2]: not inhibited
